Patent US20050222227A1, “Oxazole-amine compounds for the treatment of neurodegenerative disorders” (Pfizer Inc, priority 2004, published 2005)

Test system: gamma-secretase
Experiment: gamma-secretase activity in a solubilized membrane preparation (cell-free assay)
Type: biochemical
Settings: according to McLendon et al., read-out: IC50 activity for inhibiting gamma-secretase
Description: The activity of compounds of the Formula I of the present invention in inhibiting gamma-secretase activity may be determined in a solubilized membrane preparation generally according to the description provided in McLendon et al. Cell-free assays for γ-secretase activity, The FASEB Journal (Vol. 14, December 2000, pp. 2383-2386).

## C/C=C(\C)c1cnc(NC(=O)[C@H](CCC)NC2CCc3cc(F)cc(F)c3C2)o1 (stereo partly drawn) [Example 1, (S)-2-(5,7-difluoro-1,2,3,4-tetrahydronaphthalen-3-ylamino)-N-(5-((E)-but-2-en-2-yl)oxazol-2-yl)pentanamide]
  IC50: < 10 µM
